Assay [1] deals with T1, catalytic domain of human stromelysin (MMP-3) (Homo sapiens, UniProt P08254).
T1 construct: enzymatic activity of the catalytic domain of human stromelysin (MMP-3); made in house
The assay can be described thus: Enzymatic activity of the catalytic domain of human stromelysin (MMP-3), fluorogenic substrate. The format is biochemical. The note with it: 15 min preincubation, pH 7.5, fluorescence 328/393 nm. As for the experimental part: (§1) The two enzymes, i.e., stromelysin (MMP-3) and neutrophilic collagenase (MMP-8), were prepared as described in Ye et al. (Biochemistry; 31 (1992) pages 11231-11235). For measuring enzymatic activity or the effect of an enzyme inhibitor, 70 μl of buffer solution and 10 μl of enzyme solution are incubated, for 15 minutes and at a physiological pH, with 10 μl of a 10% (v/v) aqueous solution of dimethyl sulfoxide containing the enzyme inhibitor, where appropriate. After 10 μl of a 10% (v/v) aqueous solution of dimethyl sulfoxide containing 1 mmol of the substrate/l have been added, the enzyme reaction is monitored by fluorescence spectroscopy (328 nm (ex)/393 nm(em)).
(§2) The enzyme activity is recorded as increase in […]/minute. The IC50 values listed in table 2 are determined as the inhibitor concentrations that in each case lead to 50% inhibition of the enzyme.
(§3) The buffer solution contains 0.05% Brij (Sigma, Deisenhofen, Germany) and also 0.1 mol of Tris/HCl/l, 0.1 mol of NaCl/l, 0.01 mol of CaCl2/l and 0.1 mol of piperazine-N,N′-bis[2-ethanesulfonic acid]/l (pH=7.5). The enzyme solution contains 5 μg/ml of one of the enzyme domains prepared as described in Ye et al. The substrate solution contains 1 mmol of the fluorogenic substrate (7-methoxycoumarin-4-yl)acetyl-Pro-Leu-Gly-Leu-3-(2′,4′-dinitrophenyl)-L-2,3-diaminopropionyl-Ala-Arg-NH2/A (Bachem, Heidelberg, Germany).

The target of assay [2] is T2, catalytic domain of human neutrophilic collagenase (MMP-8) (Homo sapiens, UniProt P22894).
T2 construct: catalytic domain of human stromelysin (MMP-3) and neutrophilic collagenase (MMP-8); made in house
T2 sequence (P22894 100-262 limits assumed): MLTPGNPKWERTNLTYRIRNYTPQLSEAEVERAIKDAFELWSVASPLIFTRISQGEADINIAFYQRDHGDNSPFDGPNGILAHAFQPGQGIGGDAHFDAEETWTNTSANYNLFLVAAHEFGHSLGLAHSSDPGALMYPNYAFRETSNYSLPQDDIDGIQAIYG
Nature of the assay: Enzymatic activity of the catalytic domain of human neutrophilic collagenase (MMP-8), fluorogenic substrate. The note with it: 15 min preincubation, pH 7.5, fluorescence 328/393 nm. It is filed as biochemical. The protocol:
as §1, §2, §3

Molecules are shown by their SMILES.

T1 sequence (P08254 100-272 limits assumed): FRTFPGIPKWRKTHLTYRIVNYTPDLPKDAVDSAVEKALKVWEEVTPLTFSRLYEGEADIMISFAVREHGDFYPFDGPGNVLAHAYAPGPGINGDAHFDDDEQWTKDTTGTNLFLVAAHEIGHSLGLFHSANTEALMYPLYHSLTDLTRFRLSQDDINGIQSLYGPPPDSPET

Consider `O=C(NO)C1C[C@H]2CCC[C@H]2N1S(=O)(=O)c1ccc(-c2ccc(N3CCN(c4ccc(F)cc4)CC3)cc2)cc1` (single isomer, unassigned) [Example 63], for which the figures for the IC50 in assay [1] and in assay [2] were 200 nM and 3700 nM, respectively.

In the case of `O=C(NO)C1C[C@H]2CCC[C@H]2N1S(=O)(=O)c1ccc(I)cc1` (single isomer, unassigned) [Example 65], the IC50 (usually the midpoint of a concentration-inhibition curve) amounted to 300 nM in assay [1] and 100 nM in assay [2].

With `O=C(O)C1C[C@H]2CCC[C@H]2N1S(=O)(=O)CCc1ccc(-c2ccc(Br)cc2)cc1` (stereo partly shown) [Example 13], the IC50 in assay [1] and in assay [2] was 200 nM throughout.

As to `O=C(O)[C@H]1C[C@H]2CCC[C@H]2N1S(=O)(=O)c1ccc(-c2ccc(N3CCCC3)cc2)cc1` [Example 21], the IC50 in assay [1] was 160 nM; in assay [2], 4 nM.

As for `O=C(O)[C@H]1C[C@H]2CCC[C@H]2N1S(=O)(=O)c1ccc(-c2ccc(N3CCN(c4ccc(F)cc4)CC3)cc2)cc1` [Example 29], the IC50 in assay [1] was over 10000 nM; in assay [2], 10000 nM.

With `O=C(NO)[C@H]1C[C@H]2CCC[C@H]2N1S(=O)(=O)/C=C/c1ccccc1` [Example 57], the IC50 in assay [1] was 330 nM; in assay [2] it was 320 nM.

`O=C(NO)[C@H]1C[C@H]2CCC[C@H]2N1S(=O)(=O)c1ccc(-c2ccc([N+](=O)[O-])cc2)cc1` [Example 61]: the IC50 in assay [1] amounted to 22 nM; in assay [2], 3 nM.

In the case of `O=C(NO)[C@H]1C[C@H]2CCC[C@H]2N1S(=O)(=O)c1ccc(-c2ccccc2)cc1` [Example 64], the values for the IC50 in assay [1] and in assay [2] were 100 nM and 20 nM, respectively.

The values above are taken from patent US7772270B2, “Imino acid derivatives as inhibitors of matrix metalloproteinases” (sanofi-aventis Deutschland GmbH, priority 2003, dated 2010).
